Earlier results in patent US20040018260A1, “Novel botanical extract of Tripterygium Wilfordii Hook F” (Novemed Group Limited, priority 2002, published 2004).
Entries after “also recorded” stand apart in the source; their conditions may differ.

Key:
[1] = reported
[2] = in vitro and animal experiments; results called inconclusive
[3] = in vitro and animal experiments; results called inconclusive; remark: listed apart in the source

Row | SMILES | carcinogenic or mutagenic [1] | immunosuppressive activity [2] | anti-inflammatory activity [3]
1 | CC(C)[C@]12O[C@H]1[C@@H]1O[C@]13[C@]1(O[C@H]1C[C@H]1C4=C(CC[C@@]13C)C(=O)OC4)[C@@H]2O [T10, triptolide] | potently carcinogenic or mutagenic; also recorded: carcinogenic | most abundant and active compound | most abundant and active compound
2 | CC(C)[C@]1(O)[C@H](O)[C@@H]2O[C@]23[C@]2(O[C@H]2C[C@H]2C4=C(CC[C@@]23C)C(=O)OC4)[C@@H]1O [T11, tripriolide] |  | little immunosuppressive activity | highest anti-inflammatory activity
3 | CC(C)[C@]12O[C@H]1[C@@H]1O[C@@]13[C@@]1(C)CCC4=C(COC4=O)[C@@H]1C[C@@H]1O[C@@]13C2=O [T7, Triptonide] |  | relatively low activities | relatively low activities
